Reference: ChEMBL document CHEMBL3822418, “Enriching screening libraries with bioactive fragment space” (Bioorg Med Chem Lett, 2016)

Molecular target: Casein kinase II subunit alpha (Homo sapiens, UniProt P68400)
Experiment: Inhibition of human CK2alpha (2 to 391 residues) using [33P]-ATP by scintillation counting based radioactive filter binding assay

Casein kinase II subunit alpha, sequence (P68400 whole entry, the tested form may be a part): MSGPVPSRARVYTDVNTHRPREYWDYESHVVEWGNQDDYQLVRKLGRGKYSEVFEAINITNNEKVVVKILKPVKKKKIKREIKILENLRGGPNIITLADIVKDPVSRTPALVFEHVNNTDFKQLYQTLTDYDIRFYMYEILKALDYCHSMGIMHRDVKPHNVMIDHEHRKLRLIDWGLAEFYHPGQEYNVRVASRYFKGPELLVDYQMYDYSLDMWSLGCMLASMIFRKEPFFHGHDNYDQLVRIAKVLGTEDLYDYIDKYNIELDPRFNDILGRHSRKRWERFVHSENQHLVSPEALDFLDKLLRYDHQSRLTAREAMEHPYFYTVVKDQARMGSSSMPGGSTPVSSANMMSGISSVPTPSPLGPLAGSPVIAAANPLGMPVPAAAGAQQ

| IC50 [µM] | SMILES |
| --- | --- |
| > 200 | O=C(Nc1ccccc1)c1n[nH]c2ccc([N+](=O)[O-])cc12 |
| > 200 | CCc1nnc(-c2cccc(NC(=O)c3n[nH]c4ccccc34)c2)o1 |
| > 200 | O=C(Nc1n[nH]c2cccc(F)c12)c1ccc2c(c1)CCO2 |
| > 200 | Cc1cc2cc(NC(=O)c3n[nH]c4ccccc34)ccc2[nH]1 |
